Drawing on PubChem BioAssay (NCI), this text covers GI50 and TGI for eight compounds.

Test systems include SF-539 CNS; PC-3 prostate; SNB-19 CNS; EKVX NSCLC; A549 NSCLC; COLO 205 colon; A498 renal; NCI/ADR-RES ovarian; OVCAR-5 ovarian; MOLT-4 leukemia.
Common to all, as to assay: NCI-60 cell line screen, 48 h

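Cells were grown in 96-well plates and exposed to each compound for 48 hours at five concentrations; endpoints were interpolated linearly between bracketing concentrations, or set to the highest concentration if not reached. GI50 = concentration required for 50% inhibition of growth. Definition used: TGI = concentration required for complete inhibition of growth.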 Bounds are passed on as bounds.

With `Cc1cc(Cl)ccc1Nc1nc(C(F)(F)F)ccc1C(=O)N/N=C/c1ccccc1Cl`, the GI50 in the assay on SF-539 CNS was 1.22 µM; with PC-3 prostate, 0.866 µM; in the assay on SNB-19 CNS, 1.72 µM; in the assay on EKVX NSCLC, 0.894 µM; with A549 NSCLC, 1.77 µM; in the assay on COLO 205 colon, 0.727 µM. Further, the GI50 with NCI/ADR-RES ovarian was 1.19 µM; in the assay with OVCAR-5 ovarian it was 1.65 µM; in the assay on MOLT-4 leukemia it was 1.29 µM. Besides, the TGI was 3.6 µM with SF-539 CNS; > 26 µM in the assay on PC-3 prostate; 14.5 µM in the assay with SNB-19 CNS; 7.23 µM in the assay with EKVX NSCLC; 11.6 µM in the assay on A549 NSCLC; 2.1 µM in the assay on COLO 205 colon. The TGI in the assay on A498 renal was 3.14 µM; in the assay on NCI/ADR-RES ovarian, 7.16 µM; in the assay with OVCAR-5 ovarian, 11.1 µM; with MOLT-4 leukemia, > 100 µM.
Regarding `O=C1c2ccccc2C(=O)c2c(NCC3CO3)ccc(NCC3CO3)c21` (stereo not drawn), the TGI in the assay with SF-539 CNS is 6.82 µM; in the assay on PC-3 prostate, 9.61 µM; with SNB-19 CNS, > 39.3 µM; in the assay with EKVX NSCLC, > 51.5 µM; in the assay with A549 NSCLC it was 58.8 µM; in the assay with COLO 205 colon, 29.9 µM. For the same compound, the TGI in the assay with A498 renal is > 83.9 µM; in the assay on NCI/ADR-RES ovarian, 11.4 µM; in the assay on OVCAR-5 ovarian it was > 65.8 µM; in the assay with MOLT-4 leukemia, 0.53 µM.
As to `Cc1cccc(NC(=O)/C=C/c2ccc([N+](=O)[O-])cc2)c1`, the TGI with SF-539 CNS is > 74.1 µM; in the assay with PC-3 prostate, 28.6 µM; with SNB-19 CNS it was > 47.9 µM; in the assay with EKVX NSCLC, > 56.5 µM; in the assay with A549 NSCLC, > 56.2 µM; in the assay with COLO 205 colon, > 56.3 µM. Further, the TGI was > 100 µM in the assay with A498 renal, > 59.3 µM in the assay with NCI/ADR-RES ovarian, > 57 µM in the assay with OVCAR-5 ovarian and > 65.4 µM in the assay with MOLT-4 leukemia.
Consider `COc1ccccc1NS(=O)(=O)c1ccc2oc(SC(C)C)nc2c1`, for which the GI50 is 18.6 µM in the assay on SF-539 CNS; 12.4 µM in the assay on PC-3 prostate; 37.7 µM with SNB-19 CNS; 6.4 µM in the assay with EKVX NSCLC; 16.3 µM with A549 NSCLC; 18.6 µM in the assay on COLO 205 colon. Further, the GI50 with A498 renal was 23.3 µM; in the assay on NCI/ADR-RES ovarian, 14.8 µM; in the assay with OVCAR-5 ovarian, 48.9 µM; with MOLT-4 leukemia it was 5.23 µM. The TGI is 56.1 µM with SF-539 CNS; 45.7 µM in the assay with PC-3 prostate; > 100 µM with SNB-19 CNS; 78.7 µM with EKVX NSCLC; 88.6 µM in the assay with A549 NSCLC; 40.1 µM in the assay on COLO 205 colon. Also, the TGI with A498 renal is 61.7 µM; in the assay with NCI/ADR-RES ovarian, 84.1 µM; in the assay on OVCAR-5 ovarian it was > 100 µM; with MOLT-4 leukemia it was 39.7 µM.
`C=C1C(=O)O[C@H]2[C@H]1CC/C(COC(=O)NCCc1c[nH]c3ccc(Cl)cc13)=C\CC[C@@]1(C)O[C@@H]21`: the GI50 in the assay on SF-539 CNS was 1.75 µM; in the assay with PC-3 prostate, 1.72 µM; in the assay on SNB-19 CNS, 3.98 µM; with EKVX NSCLC it was 1.73 µM; in the assay on A549 NSCLC, 2.28 µM; in the assay with COLO 205 colon, 1.85 µM. Besides, the GI50 is 3.39 µM with A498 renal, 2.74 µM with NCI/ADR-RES ovarian, 1.97 µM with OVCAR-5 ovarian and 1.71 µM in the assay with MOLT-4 leukemia. For the same compound, the TGI came to 3.32 µM with SF-539 CNS; 3.35 µM in the assay with PC-3 prostate; 14.8 µM in the assay on SNB-19 CNS; 3.53 µM in the assay with EKVX NSCLC; 5.84 µM in the assay with A549 NSCLC; 3.59 µM in the assay on COLO 205 colon. In addition, the TGI in the assay on A498 renal is 14.7 µM; in the assay with NCI/ADR-RES ovarian, 9.77 µM; with OVCAR-5 ovarian it was 4.19 µM; with MOLT-4 leukemia, 5.27 µM.
Consider `NC(=Nc1ccc(N)cc1)C(N)=Nc1ccc(N)cc1`, for which the GI50 is 73.7 µM in the assay with SF-539 CNS; 98.6 µM in the assay on PC-3 prostate; > 100 µM in the assay on SNB-19 CNS; > 100 µM in the assay on EKVX NSCLC; > 100 µM in the assay on A549 NSCLC; 43.5 µM with COLO 205 colon. The GI50 in the assay with A498 renal was 25.3 µM; in the assay on NCI/ADR-RES ovarian, > 100 µM; in the assay with OVCAR-5 ovarian, > 100 µM; in the assay with MOLT-4 leukemia it was 55.5 µM. Moreover, the TGI in the assay on SF-539 CNS, with PC-3 prostate, in the assay on SNB-19 CNS, with EKVX NSCLC, with A549 NSCLC and with COLO 205 colon was > 100 µM in each case. Moreover, the TGI in the assay on A498 renal, in the assay on NCI/ADR-RES ovarian, in the assay with OVCAR-5 ovarian and in the assay with MOLT-4 leukemia was > 100 µM in each case.
Turning to `N#Cc1c(N)nc(NCc2ccccc2)c(C#N)c1-c1ccc(Cl)cc1Cl`, the GI50 with SF-539 CNS was > 100 µM; in the assay on PC-3 prostate, 55.7 µM; in the assay with SNB-19 CNS, > 100 µM; in the assay on EKVX NSCLC, > 100 µM; in the assay with A549 NSCLC it was > 100 µM; in the assay on COLO 205 colon it was > 100 µM. The GI50 with A498 renal was > 100 µM; with NCI/ADR-RES ovarian, > 68.1 µM; with OVCAR-5 ovarian, 96.9 µM; in the assay on MOLT-4 leukemia it was 34.6 µM. Also, the TGI with SF-539 CNS, in the assay with PC-3 prostate, with SNB-19 CNS, in the assay with EKVX NSCLC, in the assay on A549 NSCLC and with COLO 205 colon was > 100 µM each time. In addition, the TGI in the assay on A498 renal, in the assay with NCI/ADR-RES ovarian, in the assay on OVCAR-5 ovarian and in the assay with MOLT-4 leukemia was > 100 µM each time.
In the case of `N#CN1CC[C@H](C(=O)Nc2cc3cc(C(N)=O)ccc3cn2)C1`, the GI50 in the assay on SF-539 CNS is 0.0589 µM; with PC-3 prostate, 0.257 µM; with SNB-19 CNS, 0.144 µM; in the assay with EKVX NSCLC it was 0.258 µM; with A549 NSCLC it was 0.527 µM; with COLO 205 colon, 0.0855 µM. In addition, the GI50 in the assay with A498 renal was 0.0765 µM; in the assay on NCI/ADR-RES ovarian, 0.192 µM; with OVCAR-5 ovarian it was 0.51 µM; with MOLT-4 leukemia, 0.0488 µM. The TGI in the assay on SF-539 CNS is 0.319 µM; with PC-3 prostate, 20.4 µM; in the assay on SNB-19 CNS, > 100 µM; with EKVX NSCLC, 6.87 µM; in the assay on A549 NSCLC it was > 100 µM; in the assay with COLO 205 colon, 0.268 µM. In addition, the TGI with A498 renal was 0.31 µM; in the assay with NCI/ADR-RES ovarian, > 100 µM; in the assay with OVCAR-5 ovarian, > 68.4 µM.
